Assay results taken from US4048299A, “Anticaries confectionaries and oral health products” (William Wrigley, Jr. Co., priority 1970, dated 1977).

Assays:
Streptococcus sp. FA-1 = assay: Acid production inhibition, broth-tube technique; details: single agent
Description: (§2) The data was compiled through well-known broth tube analysis techniques.
(a)Measured by broth-tube technique.

[1] = system: Mixed human oral microorganisms; assay: Acid production inhibition by aldehydes in product vehicles, broth-tube technique; format: cell-based; details: 1 to 5 percent aldehyde
Lactobacillus casei = assay: Acid production inhibition, broth-tube technique; details: single agent
Description: as §2
(a)Measured by broth-tube technique.

Streptococcus spp. KI-R = assay: Growth inhibition by aldehydes in product vehicles, pour-plate technique; format: cell-based; details: 1 to 5 percent aldehyde
Method in brief: (§1)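 Aldehydes (1 to 5 percent by weight) were formulated into syrups, candies, mouthwash, toothpaste or toothpowder, added directly or as aqueous extracts to medium without a carbon source mixed 1:1 with filter-sterilized human saliva. Sugar came from the product or added sucrose. Growth over up to 24 hours was read by pour-plate count.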

[2] = system: Mixed human oral microorganisms; assay: as above; format: cell-based; details: 1 to 5 percent aldehyde
Method in brief: as §1

[3] = system: Lactobacillus casei ATCC 4646; assay: as above; format: cell-based; details: 1 to 5 percent aldehyde
Method in brief: as §1

[4] = In vivo caries evaluation, Osborne-Mendel strain 1 rat; parameters: species or system rat (Osborne-Mendel strain 1); details: Table I, 90 days
Description: Standard laboratory techniques were used to complie the data presented. In each case the aldehyde was incorporated into each specimen's food in a one percent, by weight, quantity, over a period of several weeks. In all cases, caries reduction was noted.
The aldehydes tested in vivo were pyruvaldehyde, d,1-glyceraldehyde, crystalline dimer, glycolaldehyde, octanaldehyde, nonanaldehyde, decanaldehyde, undecylenic aldehyde, and lauric aldehyde. The polyaldehydes tested were dialdehyde starch, dialdehyde starch 50 percent oxidized, dialdehyde starch 90 percent oxidized, and dialdehyde galactomannan gum.
^(a) Agents were incorporated in the diet at a 1 percent level.

oral microorganisms = assay: Acid production inhibition in vitro (summary); format: cell-based; details: in words, summary of tables
Description: Other in vitro evaluations utilized a broth tube analysis of representative anticaries aldehydes incorporated in the vehicles of this invention against cultures of acid producing microorganisms normally present in the mouth. Standard laboratory procedures were utilized throughout to evaluate the acid production inhibition and growth inhibition over the incubation time of up to 24 hours.

[5] = in compressed candy tablet, 2 h incubation
[6] = in compressed candy tablet, 5 h incubation
[7] = in compressed candy tablet, 24 h incubation
[8] = in dextrose syrup, 2 h incubation
[9] = in dextrose syrup, 5 h incubation
[10] = in dextrose syrup, 24 h incubation
[11] = in sucrose syrup, 2 h incubation
[12] = in sucrose syrup, 5 h incubation
[13] = in sucrose syrup, 24 h incubation
[14] = in tooth powder (aqueous extract), 2 h incubation
[15] = in tooth powder (aqueous extract), 5 h incubation
[16] = in tooth powder (aqueous extract), 24 h incubation
[17] = in toothpaste (aqueous extract), 2 h incubation
[18] = in toothpaste (aqueous extract), 5 h incubation
[19] = in toothpaste (aqueous extract), 24 h incubation
[20] = Student's test, 95 percent confidence limit

In the case of CC(=O)C=O [Pyruvaldehyde], the “Acid Production Inhibition” value (Streptococcus sp. FA-1; 0.001 percent) is reported as 10%, the “Acid Production Inhibition” value (Streptococcus sp. FA-1; 0.002 percent) is reported as 35% and the “Acid Production Inhibition” value [1, 5] is reported as 0 Per Cent. For the same compound, the “Acid Production Inhibition” value [1, 6] was 89 Per Cent, the “Acid Production Inhibition” value [1, 7] was 78 Per Cent and the “Acid Production Inhibition” value [1, 8] was 15 Per Cent. For the same compound, the “Acid Production Inhibition” value [1, 9] was 89 Per Cent, the “Acid Production Inhibition” value [1, 10] was 83 Per Cent and the “Acid Production Inhibition” value ([1]; in hard candy, 2 h incubation) was 20 Per Cent. The “Acid Production Inhibition” value ([1]; in hard candy, 5 h incubation) was 93 Per Cent, the “Acid Production Inhibition” value ([1]; in hard candy, 24 h incubation) was 84 Per Cent and the “Acid Production Inhibition” value ([1]; in mouthwash, 2 h incubation) was 0 Per cent. For the same compound, the “Acid Production Inhibition” value ([1]; in mouthwash, 5 h incubation) was 94 Per cent, the “Acid Production Inhibition” value ([1]; in mouthwash, 24 h incubation) was 87 Per cent and the “Acid Production Inhibition” value [1, 11] was 77.8 Per cent. The “Acid Production Inhibition” value [1, 12] was 92.1 Per cent, the “Acid Production Inhibition” value [1, 13] was 91.8 Per cent and the “Acid Production Inhibition” value [1, 14] was 0 Per cent. For the same compound, the “Acid Production Inhibition” value [1, 15] was 86 Per cent, the “Acid Production Inhibition” value [1, 16] was 80 Per cent and the “Acid Production Inhibition” value [1, 17] was 0 Per cent. The “Acid Production Inhibition” value [1, 18] was 0 Per cent, the “Acid Production Inhibition” value [1, 19] was 0 Per cent and the “Acid Production Inhibition” value (Lactobacillus casei; 0.005 percent) was 24%. The “Acid Production Inhibition” value (Lactobacillus casei; 0.0075 percent) was 57%, the “Growth Inhibition” value (Streptococcus spp. KI-R; [5]) was “N.S” and the “Growth Inhibition” value (Streptococcus spp. KI-R; [6]) was “N.S”. The “Growth Inhibition” value (Streptococcus spp. KI-R; [7]) was “N.S”, the “Growth Inhibition” value (Streptococcus spp. KI-R; [8]) was 100 Per Cent and the “Growth Inhibition” value (Streptococcus spp. KI-R; [9]) was 100 Per Cent. The “Growth Inhibition” value (Streptococcus spp. KI-R; [10]) was 100 Per Cent, the “Growth Inhibition” value (Streptococcus spp. KI-R; in hard candy, 2 h incubation) was greater than 99.99 Per Cent and the “Growth Inhibition” value (Streptococcus spp. KI-R; in hard candy, 5 h incubation) was greater than 99.99 Per Cent. The “Growth Inhibition” value (Streptococcus spp. KI-R; in hard candy, 24 h incubation) was 100 Per Cent, the “Growth Inhibition” value (Streptococcus spp. KI-R; in mouthwash, 2 h incubation) was greater than 99.99 Per cent and the “Growth Inhibition” value (Streptococcus spp. KI-R; in mouthwash, 5 h incubation) was greater than 99.99 Per cent. The “Growth Inhibition” value (Streptococcus spp. KI-R; in mouthwash, 24 h incubation) was 100 Per cent, the “Growth Inhibition” value (Streptococcus spp. KI-R; [11]) was greater than 99.9 Per cent and the “Growth Inhibition” value (Streptococcus spp. KI-R; [12]) was greater than 99.99 Per cent. For the same compound, the “Growth Inhibition” value (Streptococcus spp. KI-R; [13]) was 100 Per cent, the “Growth Inhibition” value (Streptococcus spp. KI-R; [14]) was 100 Per cent and the “Growth Inhibition” value (Streptococcus spp. KI-R; [15]) was 100 Per cent. For the same compound, the “Growth Inhibition” value (Streptococcus spp. KI-R; [16]) was 100 Per cent, the “Growth Inhibition” value (Streptococcus spp. KI-R; [17]) was “N.S” and the “Growth Inhibition” value (Streptococcus spp. KI-R; [18]) was “N.S”. For the same compound, the “Growth Inhibition” value (Streptococcus spp. KI-R; [19]) was “N.S”, the “Growth Inhibition” value [2, 5] was 99.7 Per Cent and the “Growth Inhibition” value [2, 6] was 99.99 Per Cent. The “Growth Inhibition” value [2, 7] was 99.98 Per Cent, the “Growth Inhibition” value [2, 8] was 99.8 Per Cent and the “Growth Inhibition” value [2, 9] was 100 Per Cent. The “Growth Inhibition” value [2, 10] was 99.99 Per Cent, the “Growth Inhibition” value ([2]; in hard candy, 2 h incubation) was 99.5 Per Cent and the “Growth Inhibition” value ([2]; in hard candy, 5 h incubation) was 100 Per Cent. For the same compound, the “Growth Inhibition” value ([2]; in hard candy, 24 h incubation) was “N.S”, the “Growth Inhibition” value ([2]; in mouthwash, 2 h incubation) was 99.0 Per cent and the “Growth Inhibition” value ([2]; in mouthwash, 5 h incubation) was 100 Per cent. For the same compound, the “Growth Inhibition” value ([2]; in mouthwash, 24 h incubation) was 99.7 Per cent, the “Growth Inhibition” value [2, 11] was greater than 99.9 Per cent and the “Growth Inhibition” value [2, 12] was greater than 99.99 Per cent. For the same compound, the “Growth Inhibition” value [2, 13] was “N.S”, the “Growth Inhibition” value [2, 14] was “N.S” and the “Growth Inhibition” value [2, 15] was 99.99 Per cent. The “Growth Inhibition” value [2, 16] was 99.94 Per cent, the “Growth Inhibition” value [2, 17] was 100 Per cent and the “Growth Inhibition” value [2, 18] was “N.S”. The “Growth Inhibition” value [2, 19] was 100 Per cent, the “Growth Inhibition” value [3, 5] was 99.5 Per Cent and the “Growth Inhibition” value [3, 6] was 100 Per Cent. For the same compound, the “Growth Inhibition” value [3, 7] was 100 Per Cent, the “Growth Inhibition” value [3, 8] was 99.4 Per Cent and the “Growth Inhibition” value [3, 9] was 99.99 Per Cent. For the same compound, the “Growth Inhibition” value [3, 10] was 100 Per Cent, the “Growth Inhibition” value ([3]; in hard candy, 2 h incubation) was 92 Per Cent and the “Growth Inhibition” value ([3]; in hard candy, 5 h incubation) was 99.85 Per Cent. For the same compound, the “Growth Inhibition” value ([3]; in hard candy, 24 h incubation) was 100 Per Cent, the “Growth Inhibition” value [3, 11] was 97.5 Per cent and the “Growth Inhibition” value [3, 12] was greater than 99.99 Per cent. The “Growth Inhibition” value [3, 13] was greater than 99.99 Per cent, the “Growth Inhibition” value [3, 14] was “N.S” and the “Growth Inhibition” value [3, 15] was 98 Per cent. The “Growth Inhibition” value [3, 16] was 100 Per cent, the “Growth Inhibition” value [3, 17] was “N.S” and the “Growth Inhibition” value [3, 18] was “N.S”. The “Growth Inhibition” value [3, 19] was 100 Per cent, the “Caries Score, Mean Incidence” value ([4]; 1 percent in diet, RCD control 23.3 (pyruvaldehyde test), 12.85 (glycolaldehyde test)) was 8.6 and the “Caries Score, Mean Extent” value ([4]; 1 percent in diet, RCD control 64.8 (pyruvaldehyde test), 35.45 (glycolaldehyde test)) was 21.7. The “Caries Extent Reduction, statistical evaluation” value [4, 20] was “Significant”, the “Caries Incidence Reduction, statistical evaluation” value [4, 20] was “Significant” and the Acid Production Inhibition (oral microorganisms) was “excellent acid production inhibition”.
